Patent US20160120915A1, “METHODS FOR MANIPULATING IMMUNE RESPONSES BY ALTERING MICROBIOTA” (NEW YORK UNIVERSITY, priority 2013, published 2016)
Counter-ions that a name gives are not always drawn.

Assays:
[1] = tested on: terminal ileum; experiment: PAT: ileal gene expression profiling by whole genome microarray, 6-week mice; assay type: in vivo, C57BL/6 mice; details: 6-week PAT vs Control, T-test p<0.05 and fold change ≧1.2 or ≦0.8
Description: (§1) Ileal gene expression profiling of STAT, PAT, and control animal groups, was performed using the Affymetrix Genechip system (Affymetrix). Total RNA quality and quantity were determined using the Agilent 2100 Bioanalyser and Nanodrop ND-1000. Total RNA (100 ng) was used to prepare cDNA following the Affymetrix […] Express Kit labelling protocol (Affymetrix). Standardized array processing procedures recommended by Affymetrix were performed, including hybridization, fluidics processing and scanning of the Affymetrix MG-430 2.0 arrays. GeneSpring GX11 software (Agilent Technologies) was used to normalize the raw data (Affymetrix CEL files) by Robust Multichip Average algorithm (RMA).
1127 and 3065 reproducibly regulated genes were identified from ˜45,000 genes of the mouse genome by T-test (p<0.05) and fold change (≧1.2 or ≦0.8) in 6-week PAT (Panel A; Control vs Amoxicillin and Panel B; Control vs Tylosin), respectively (FIG. 22). DAVID analysis was performed using the regulated genes, and Gene Set Enrichment analysis (GSEA) was performed using whole gene data.
(C, n=3), amoxicillin (A, n=3), and tylosin treated mice (T, n=3).

[2] = tested on: SAA genes in terminal ileum; experiment: NOD: SAA 1, 2, 3 gene expression in terminal ileum by qPCR; assay type: in vivo; details: 6-week old NOD male mice, qPCR normalized to 18S rRNA, p<0.05
Description: The distal ileum (1 cm) without Peyer's Patches was collected from each mouse for RNA extraction and kept in RNAlater (Ambion) overnight at 4° C. Samples were stored at −80° C. until RNA extraction was performed.
Total RNA was extracted from mouse tissues using the RNeasy Mini Kit with on-column DNase treatment to remove contaminating gDNA (Qiagen), according to the manufacturer's instructions. 1 μg of total RNA was reverse transcribed to cDNA using Super Script II (Applied Biosystems) according to the manufacturer's instructions. To generate standards for expression analysis of each target gene, the cDNA region of interest was PCR-amplified and the product cloned into pGEM-T easy (Promega). qPCR was performed with Power SYBR Green PCR Master mix (Roche) and run in a LightCycler 480 system (Roche). Target mRNA was normalized to 18S rRNA as an internal control in each sample.
RNA was extracted from the terminal ileum of the 6-week old NOD mice. […] RNA was reverse transcribed into cDNA and then qPCR was performed for SAA1, 2, or 3 using an absolute quantitation method. Gene expression data were normalized to 18S rRNA expression. […] The results for this experiment show consistent decreases in expression of the SAA genes in the ileum, detected by two independent methods (microarray and qPCR). […]

[3] = tested on: ileal tissue; experiment: Ileal gene expression profiling by whole genome microarray, 8-week EarlySTAT; assay type: in vivo, C57BL/6J mice
Description: as §1
997 reproducibly regulated genes were identified from ˜45,000 genes of the mouse genome by T-test (p<0.05) and fold change (≧1.2 or ≦0.8) in 8-week STAT mice (FIG. 8). DAVID analysis was performed using the regulated genes, and Gene Set Enrichment analysis (GSEA) was performed using whole gene data.

[4] = tested on: ileal tissue; experiment: TimeSTAT: expression of immunological markers in ileal tissue by qPCR; assay type: in vivo, C57BL/6J mice; details: 20 weeks of age
From the text: C57BL/6J (Jackson Labs, Bar Harbor, Me.) mice either received no antibiotics (control, females n=5, males n=5) or continuous STAT penicillin starting at birth (STATb, females n=4, males n=5), or at weaning at 4 weeks (STATw, females n=5, males n=5). Mice were weaned at 4 weeks onto normal chow (13.2% fat, 5053 PicoLab Rodent Diet 20, LabDiet, Brentwood, Mo.).
Both STATw and STATb remained on lifelong STAT after initial exposure. Mice were sacrificed at 20 weeks of age. The terminal[1 cm] ileum without Peyer's Patches [TI-] was collected for gene expression analysis by qPCR.
Total RNA was extracted from mouse tissues using the RNeasy Mini Kit (Qiagen), according to the manufacturer's instructions. Total RNA was reverse transcribed to cDNA using the Verso™ cDNA Synthesis Kit (Thermo Scientific). To generate standards for expression analysis of each target gene, the cDNA region of interest was PCR-amplified and the PCR product was cloned into pGEM-T easy (Promega). qPCR was performed with LightCycler 480 SYBR Green I Master mix (Roche) and run in a LightCycler 480 system (Roche). Target mRNA was normalized to GAPDH mRNA as an internal control in each sample.
Both STATw and STATb remained on lifelong STAT after initial exposure. Expression of immunological markers in ileal tissue was measured by qPCP at 20 weeks of age in both female and male mice.

| ileal expression of polymeric Ig receptor (pIgR) ([4]; female mice, STAT vs control) | Structure (SMILES) | reproducibly regulated genes out of ~45,000 genes of the mouse genome [1] | SAA gene expression (SAA 1, 2, 3) in the terminal ileum [2] | reproducibly regulated genes out of ~45,000 genes of the mouse genome ([3]; 8-week STAT mice, T-test p<0.05 and fold change ≧1.2 or ≦0.8) | SAA1 expression in ileal tissue (microarray/GSEA) ([3]; 8-week, STAT vs control) | ileal expression of Th17 transcription factor (RORγT) ([4]; female mice, STAT from weaning or birth vs control) | ileal expression of J-chain ([4]; female mice, STAT vs control) | ileal expression of Reg3γ ([4]; female mice, STAT vs control) | ileal expression of SAA1/SAA2 ([4]; female mice, STAT vs control) | ileal expression of SSA3 ([4]; female mice, STAT vs control) | ileal expression of cytokine ([4]; female mice, STAT vs control) | ileal expression of cytokine TH-17A ([4]; female mice, STAT vs control) | ileal expression of defensin β1 (Defb1) ([4]; female mice, STAT vs control) | ileal expression of J-chain ([4]; male mice, STAT vs control) | ileal expression of RORγt ([4]; male mice, STAT vs control) | ileal expression of pIgR ([4]; male mice, STAT vs control) |
| --- | --- | --- | --- | --- | --- | --- | --- | --- | --- | --- | --- | --- | --- | --- | --- | --- |
|  | CC[C@H]1OC(=O)C[C@@H](O)[C@H](C)[C@@H](O[C@@H]2O[C@H](C)[C@@H](O[C@H]3C[C@@](C)(O)[C@@H](O)[C@H](C)O3)[C@H](N(C)C)[C@H]2O)[C@@H](CC=O)C[C@@H](C)C(=O)/C=C/C(C)=C/[C@@H]1CO[C@@H]1O[C@H](C)[C@@H](O)[C@@H](OC)[C@H]1OC [Tylosin, Tylosin tartrate] | 3065 | significantly decreases |  |  |  |  |  |  |  |  |  |  |  |  |  |
| significant reductions | CC1(C)S[C@@H]2[C@H](NC(=O)COc3ccccc3)C(=O)N2[C@H]1C(=O)[O-].[K+] [STAT, penicillin VK] |  |  | 997 | strong down-regulation | significant reductions | significant reductions | significant reductions | significant reductions | significant reductions | significant reductions | significant reductions | significant reductions | lacked differences | lacked differences | lacked differences |
